# From PubChem BioAssay AID1963834 (Molecular Pharmacology Branch, DTP, NCI, 2024)
# Tested on: 873145-292-R-J1-PDC complex spheroid viability
# Assay: Anticancer human tumor 873145-292-R-J1-PDC patient-derived renal clear cell carcinoma cell line growth inhibition [POLQ]
# Details: for IC50: curve of first compound; for viability, T/C: stronger effect = lower value
# Outline: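 Three-cell-type spheroids modelling solid tumor plus stroma served as the readout system; POL inhibitors were tested individually and in combination, concentration ranges set by clinical Cmax where known.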
# [1] = second compound 0.0316 µM, first compound 0.0316 µM
# [2] = second compound 0.0316 µM, first compound 0.1 µM
# [3] = second compound 0.0316 µM, first compound 0.316 µM
# [4] = second compound 0.0316 µM, first compound 1 µM
# [5] = second compound 0.0316 µM, first compound 3.16 µM
# [6] = second compound 0.0316 µM, first compound 10 µM
# [7] = second compound 0.1 µM, first compound 0.0316 µM
# [8] = second compound 0.1 µM, first compound 0.1 µM
# [9] = second compound 0.1 µM, first compound 0.316 µM
# [10] = second compound 0.1 µM, first compound 1 µM
# [11] = second compound 0.1 µM, first compound 3.16 µM
# [12] = second compound 0.1 µM, first compound 10 µM
# [13] = second compound 0.316 µM, first compound 0.0316 µM
# [14] = second compound 0.316 µM, first compound 0.1 µM
# [15] = second compound 0.316 µM, first compound 0.316 µM
# [16] = second compound 0.316 µM, first compound 1 µM
# [17] = second compound 0.316 µM, first compound 3.16 µM
# [18] = second compound 0.316 µM, first compound 10 µM
# [19] = second compound 1 µM, first compound 0.0316 µM
# [20] = second compound 1 µM, first compound 0.1 µM
# [21] = second compound 1 µM, first compound 0.316 µM
# [22] = second compound 1 µM, first compound 1 µM
# [23] = second compound 1 µM, first compound 3.16 µM
# [24] = second compound 1 µM, first compound 10 µM
# [25] = second compound 3.16 µM, first compound 0.0316 µM
# [26] = second compound 3.16 µM, first compound 0.1 µM
# [27] = second compound 3.16 µM, first compound 0.316 µM
# [28] = second compound 3.16 µM, first compound 1 µM
# [29] = second compound 3.16 µM, first compound 3.16 µM
# [30] = second compound 3.16 µM, first compound 10 µM
# [31] = second compound 10 µM, first compound 0.0316 µM
# [32] = second compound 10 µM, first compound 0.1 µM
# [33] = second compound 10 µM, first compound 0.316 µM
# [34] = second compound 10 µM, first compound 1 µM
# [35] = second compound 10 µM, first compound 3.16 µM
# [36] = second compound 10 µM, first compound 10 µM
# 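Note: spheroids exposed to compounds for 7 days before viability readout.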
# 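Throughout, for viability, T/C: luminescence signal used as surrogate for viable cell content; 100% = DMSO vehicle control viability.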
smiles,measurement,setting,value
COc1cc2cc(C(=O)CCC(=O)O)sc2cc1OC + COC1C(OC(N)=O)C(O)C(Oc2ccc3c(O)c(NC(=O)c4ccc(O)c(CC=C(C)C)c4)c(=O)oc3c2C)OC1(C)C,IC50,second compound 0.0316 µM,> 10 µM
same,IC50,second compound 0.1 µM,> 10 µM
same,IC50,second compound 0.316 µM,> 10 µM
same,IC50,second compound 1 µM,> 10 µM
same,IC50,second compound 3.16 µM,> 10 µM
same,IC50,second compound 10 µM,> 10 µM
same,"viability, T/C",[1],106%
same,"viability, T/C",[2],93.8%
same,"viability, T/C",[3],106%
same,"viability, T/C",[4],101%
same,"viability, T/C",[5],91.8%
same,"viability, T/C",[6],94.3%
same,"viability, T/C",[7],105%
same,"viability, T/C",[8],97.7%
same,"viability, T/C",[9],94.7%
same,"viability, T/C",[10],91.7%
same,"viability, T/C",[11],108%
same,"viability, T/C",[12],102%
same,"viability, T/C",[13],107%
same,"viability, T/C",[14],93.8%
same,"viability, T/C",[15],94.7%
same,"viability, T/C",[16],89.8%
same,"viability, T/C",[17],97.6%
same,"viability, T/C",[18],94.2%
same,"viability, T/C",[19],108%
same,"viability, T/C",[20],87.4%
same,"viability, T/C",[21],109%
same,"viability, T/C",[22],100%
same,"viability, T/C",[23],102%
same,"viability, T/C",[24],92.1%
same,"viability, T/C",[25],103%
same,"viability, T/C",[26],104%
same,"viability, T/C",[27],89%
same,"viability, T/C",[28],95.1%
same,"viability, T/C",[29],100%
same,"viability, T/C",[30],98.1%
same,"viability, T/C",[31],93.4%
same,"viability, T/C",[32],88.2%
same,"viability, T/C",[33],94.5%
same,"viability, T/C",[34],97.6%
same,"viability, T/C",[35],99.2%
same,"viability, T/C",[36],96.7%
O=C(Nc1ccc(O)c(NS(=O)(=O)c2ccc(F)cc2)c1)c1ccc(-c2ccccc2)cc1 + COC1C(OC(N)=O)C(O)C(Oc2ccc3c(O)c(NC(=O)c4ccc(O)c(CC=C(C)C)c4)c(=O)oc3c2C)OC1(C)C,IC50,second compound 0.0316 µM,> 10 µM
same,IC50,second compound 0.1 µM,> 10 µM
same,IC50,second compound 0.316 µM,> 10 µM
same,IC50,second compound 1 µM,> 10 µM
same,IC50,second compound 3.16 µM,> 10 µM
same,IC50,second compound 10 µM,> 10 µM
same,"viability, T/C",[1],113%
same,"viability, T/C",[2],99.8%
same,"viability, T/C",[3],95.7%
same,"viability, T/C",[4],101%
same,"viability, T/C",[5],98.5%
same,"viability, T/C",[6],101%
same,"viability, T/C",[7],99.9%
same,"viability, T/C",[8],106%
same,"viability, T/C",[9],88.9%
same,"viability, T/C",[10],94.8%
same,"viability, T/C",[11],97.6%
same,"viability, T/C",[12],101%
same,"viability, T/C",[13],105%
same,"viability, T/C",[14],92.7%
same,"viability, T/C",[15],96.2%
same,"viability, T/C",[16],98.6%
same,"viability, T/C",[17],110%
same,"viability, T/C",[18],98.1%
same,"viability, T/C",[19],106%
same,"viability, T/C",[20],103%
same,"viability, T/C",[21],91.6%
same,"viability, T/C",[22],97.2%
same,"viability, T/C",[23],104%
same,"viability, T/C",[24],91.1%
same,"viability, T/C",[25],97.3%
same,"viability, T/C",[26],94.8%
same,"viability, T/C",[27],102%
same,"viability, T/C",[28],92.9%
same,"viability, T/C",[29],99.2%
same,"viability, T/C",[30],109%
same,"viability, T/C",[31],105%
same,"viability, T/C",[32],95.2%
same,"viability, T/C",[33],92.5%
same,"viability, T/C",[34],100%
same,"viability, T/C",[35],108%
same,"viability, T/C",[36],108%
